Data reported in patent publication US20030206892A1, “Methods of modulating activity of DXR” (priority 2000, published 2003).
Converted amounts (≈) assume the structure as drawn.

Key:
Format in all cases: cell-based
E. coli DH5α = test: E. coli DXR MIC experiment, parent strain; conditions: Escherichia coli, LB, overnight at 37° C., read-out: E. coli DXR MICs, E. coli DH5α
Procedure: (§1) The MIC protocol used techniques well known to those skilled in the art. All strains were grown overnight in LB with appropriate selection. The compounds are mixed or put in contact with DMSO. Fifty μl of LB was placed in each well of the microtiter plate, except in Column 1. To obtain a top concentration of 256 μl/mil of compound after the inoculum is added: 10 μl of a 5.12 mg/ml stock is mixed with 90 μl of LB. This mixture was placed in the first well of its assigned row of a 96-well plate. The compound was then serially diluted 1:2 by taking 50 μl from the first well in the row and mixing it with the second well of the same row, Column 2. Then, 50 μl from that well was mixed with the third well in the row, Column 3 and so on until Column 11. Fifty μl of the serial dilution from Column 11 was discarded. The final well in the row, column 12, was the growth control. No compound was placed in column 12. The overnight culture was diluted 1:50 into LB. Fifty μl of this culture dilution was added to every well of the microtiter plate. This dilutes the inoculum and drug 1:2. The final inoculum was approximately 1×10^5 cells/ml. The 96-well pates are then incubated overnight at 37° C.

E. coli DH5α + (pET28) = test: E. coli DXR MIC experiment, empty vector strain; conditions: Escherichia coli, LB, overnight at 37° C., read-out: E. coli DXR MICs, E. coli DH5α + (pET28)
Procedure: as §1

[1] = test system: E. coli DH5α + (pET28::dxr), H. influenzae dxr; test: H. influenzae DXR MIC experiment, strain expressing H. influenzae DXR
Procedure: as §1, with “Fifty μl of LB was placed in each well of the microtiter plate, except in Column 1. To obtain a top concentration of 256 μl/mil of compound after the inoculum is added: 10 μl of a 5.12 mg/ml stock is mixed with 90 μl of LB.” left out, “The overnight culture was diluted 1:50 into LB.” left out

[2] = test system: E. coli DH5α + (pET28::dxr), E. coli dxr; test: E. coli DXR MIC experiment, strain overexpressing E. coli DXR
Procedure: as §1

`CC1(C)S[C@@H]2[C@H](NC(=O)[C@H](N)c3ccc(O)cc3)C(=O)N2[C@H]1C(=O)O` [Amoxicillin] was tested, and the MIC (E. coli DH5α) was 16 µg/mL (≈ 43.8 µM).

`O=CN(O)CCCP(=O)(O)O` [Fosmidomycin] was tested, and the MIC (E. coli DH5α + (pET28)) was 16 µg/mL, the “MIC increase for cells expressing H. influenzae DXR” value ([1]; E. coli cells (DH5α) expressing H. influenzae DXR) was 16 fold and the MIC ([1]; Escherichia coli, read-out: H. influenzae DXR MICs, E. coli DH5α + (pET28::dxr)) was 256 µg/mL. The MIC (E. coli DH5α) was 16 µg/mL (≈ 87.4 µM), the “MIC increase for cells overexpressing E. coli DXR” value ([2]; E. coli cells (DH5α) overexpressing E. coli DXR) was 8 fold and the MIC ([2]; Escherichia coli, read-out: E. coli DXR MICs, E. coli DH5α + (pET28::dxr)) was 128 µg/mL.
